# Measured values as given in patent US4616081A, “Cephalosporin compounds” (Asahi Kasei Kogyo Kabushiki Kaisha, priority 1982, dated 1986).
# Tests used:
# [1] = test system: E. coli NIHJ-JC2; assay: MIC against E. coli NIHJ-JC2; format: cell-based
# Description: (§1) Nextly, antibacterial activity or minimum inhibitory concentration (MIC) was measured and the results are shown in Table 1 with respect to the following representative compounds according to the present invention. [drawing 19]
# (§2) With respect to Compound Nos. 14 and 15, antibacterial activity or minimum inhibitory concentration (MIC) was measured and the results are shown in Table 2. [drawing 21]
# [2] = test system: Bac. subtilis ATCC 6633; assay: MIC against Bac. subtilis ATCC 6633; format: cell-based; details: Bacterial count inoculated 10^6 cells/ml
# Description: as §2
# [3] = test system: Ps. aeruginosa 0812 M2; assay: MIC against Ps. aeruginosa 0812 M2; format: cell-based; details: Bacterial count inoculated 10^6 cells/ml
# Description: as §1, §2
# [4] = test system: Proteus rettgeri ACR; assay: MIC against Proteus rettgeri ACR; format: cell-based
# Description: as §1, §2
# [5] = test system: Klebs. pneumoniae ATCC 10031; assay: MIC against Klebs. pneumoniae ATCC 10031; format: cell-based
# Description: as §1, §2
# [6] = test system: Staph. aureus MS27; assay: MIC against Staph. aureus MS27; format: cell-based
# Description: as §1, §2
# [7] = test system: Proteus morganii 0239; assay: MIC against Proteus morganii 0239; format: cell-based
# Description: as §1, §2
# [8] = test system: Salm. enteritidis Gaertner; assay: MIC against Salm. enteritidis Gaertner; format: cell-based
# Description: as §1, §2
# [9] = test system: E. coli W3630; assay: MIC against E. coli W3630; format: cell-based
# Description: as §1, §2
# [10] = test system: Serratia marcescens; assay: MIC against Serratia marcescens; format: cell-based
# Description: as §1, §2
# [11] = test system: Sarcina lutea ATCC 9341; assay: MIC against Sarcina lutea ATCC 9341; format: cell-based
# Description: as §1, §2
# [12] = test system: Citrobact. freundii GN346; assay: MIC against Citrobact. freundii GN346; format: cell-based
# Description: as §1, §2
# [13] = test system: E. coli W3630 PS3; assay: MIC against E. coli W3630 PS3; format: cell-based
# Description: as §1, §2
# [14] = test system: Shigella sonnei E33; assay: MIC against Shigella sonnei E33; format: cell-based
# Description: as §1, §2
# [15] = test system: Enterobact. cloacae GN336; assay: MIC against Enterobact. cloacae GN336; format: cell-based
# Description: as §1, §2
# [16] = test system: Staph. aureus ATCC 6538P; assay: MIC against Staph. aureus ATCC 6538P; format: cell-based
# Description: as §1, §2
# [17] = test system: Enterobact. aerogenes 0655; assay: MIC against Enterobact. aerogenes 0655; format: cell-based
# Description: as §1, §2
# [18] = test system: Strept. pyogenes NY5; assay: MIC against Strept. pyogenes NY5; format: cell-based; details: Bacterial count inoculated 10^6 cells/ml
# Description: as §1, §2
# [19] = test system: E. coli W3630 RGN14; assay: MIC against E. coli W3630 RGN14; format: cell-based
# [20] = test system: E. coli W3630 RGN238; assay: MIC against E. coli W3630 RGN238; format: cell-based
# [21] = test system: Staph. pyogenes NY5; assay: MIC against Staph. pyogenes NY5; format: cell-based
# [22] = test system: E. coli 0205; assay: MIC against E. coli 0205; format: cell-based
# [23] = maximum blood concentration after oral administration in Wister rats (HPLC and Bioassay); format: in vivo; details: Wister rat, fasted, 30 mg/kg, solution of pH 7 in phosphate buffer
# Description: Further in the compounds according to the present invention, intestinal absorption is improved by the introduction of amino acids at the 3-position thereof. For example, comparison of the maximum blood concentration of the Compound Nos. 2, 3, 7, 8, 14, 15 and 23 with that of Comparative Compound (b) establishes and affirms the effects, as is shown below. In the above test, the method for measurement of blood concentration was as follows. Rate: Wister rat weighing 170 to 220 g Dose: 30 mg/kg Wister rats were fasted from the previous night but freely accessible to water. Each of drugs was administered as a solution of pH 7 in a phosphate buffer, when orally administered. The blood concentration was measured in accordance with the High Performance Liquid Chromatography (HPLC) method and the Bioassay method by using E. coli as bacteria for test.
# [24] = acute toxicity test using mice, intraperitoneal; details: mouse, in vivo, ip
# Text: In addition to excellent antibacterial activity, the compounds of the present invention are low in toxicity. For example, in acute toxicity test using mice, the following results were obtained with Compound Nos. 2, 3, 7, 14, 15 and 23 which were intraperitoneally administered.
# [25] = Bacterial count inoculated 10^6 cells/ml
# [26] = Bacterial count inoculated 10^8 cells/ml
# [27] = Table 3, second listing of the strain, head prints 10^6 cells/ml
smiles,measurement,setting,value
"Cc1nnc(SCC2=C(C(=O)O)N3C(=O)C(NC(=O)Cn4cnnn4)C3SC2)s1 (stereo not drawn) [Comparative Compound (a), reference compound]",Minimum Inhibitory Concentration (MIC),[1]; [25],1.6
same,Minimum Inhibitory Concentration (MIC),[2],0.2
same,Minimum Inhibitory Concentration (MIC),[3],> 100
same,Minimum Inhibitory Concentration (MIC),[4]; [25],> 100
same,Minimum Inhibitory Concentration (MIC),[5]; [25],3.1
same,Minimum Inhibitory Concentration (MIC),[6]; [25],1.6
same,Minimum Inhibitory Concentration (MIC),[7]; [25],> 100
same,Minimum Inhibitory Concentration (MIC),[8]; [25],3.1
same,Minimum Inhibitory Concentration (MIC),[9]; [25],3.1
same,Minimum Inhibitory Concentration (MIC),[10]; [25],> 100
same,Minimum Inhibitory Concentration (MIC),[11]; [25],0.8
same,Minimum Inhibitory Concentration (MIC),[12]; [25],> 100
same,Minimum Inhibitory Concentration (MIC),[13]; [25],3.1
same,Minimum Inhibitory Concentration (MIC),[14]; [25],1.6
same,Minimum Inhibitory Concentration (MIC),[15]; [25],> 100
same,Minimum Inhibitory Concentration (MIC),[16]; [25],0.4
same,Minimum Inhibitory Concentration (MIC),[17]; [25],> 100
same,Minimum Inhibitory Concentration (MIC),[18],0.2
"CO/N=C(\C(=O)N[C@@H]1C(=O)N2C(C(=O)O)=C(COC(C)=O)CS[C@H]12)c1csc(N)n1 [Comparative Compound (b), reference compound]",Minimum Inhibitory Concentration (MIC),[1]; [26],6.3
same,Minimum Inhibitory Concentration (MIC),[1]; [27],25
same,Minimum Inhibitory Concentration (MIC),[19]; [25],≤ 0.2
same,Minimum Inhibitory Concentration (MIC),[19]; [27],100
same,Minimum Inhibitory Concentration (MIC),[20]; [25],≤ 0.2
same,Minimum Inhibitory Concentration (MIC),[20]; [27],≥ 100
same,Minimum Inhibitory Concentration (MIC),[4]; [25],≤ 0.2
same,Minimum Inhibitory Concentration (MIC),[4]; [27],100
same,Minimum Inhibitory Concentration (MIC),[21]; [25],≤ 0.2
same,Minimum Inhibitory Concentration (MIC),[21]; [26],0.2
same,Minimum Inhibitory Concentration (MIC),[5]; [25],≤ 0.2
same,Minimum Inhibitory Concentration (MIC),[5]; [26],25
same,Minimum Inhibitory Concentration (MIC),[5]; [27],1.6
same,Minimum Inhibitory Concentration (MIC),[6]; [25],1.6
same,Minimum Inhibitory Concentration (MIC),[6]; [26],3.1
same,Minimum Inhibitory Concentration (MIC),[7]; [25],≤ 0.2
same,Minimum Inhibitory Concentration (MIC),[7]; [26],50
same,Minimum Inhibitory Concentration (MIC),[8]; [25],≤ 0.2
same,Minimum Inhibitory Concentration (MIC),[8]; [26],6.3
same,Minimum Inhibitory Concentration (MIC),[9]; [25],≤ 0.2
same,Minimum Inhibitory Concentration (MIC),[9]; [26],25
same,Minimum Inhibitory Concentration (MIC),[9]; [27],6.3
same,Minimum Inhibitory Concentration (MIC),[22]; [25],0.4
same,Minimum Inhibitory Concentration (MIC),[22]; [27],50
same,Minimum Inhibitory Concentration (MIC),[10]; [25],≤ 0.2
same,Minimum Inhibitory Concentration (MIC),[10]; [26],50
same,Minimum Inhibitory Concentration (MIC),[10]; [27],> 100
same,Minimum Inhibitory Concentration (MIC),[11]; [25],≤ 0.2
same,Minimum Inhibitory Concentration (MIC),[11]; [26],≤ 0.2
same,Cmax,[23],200 ng/mL
same,Minimum Inhibitory Concentration (MIC),[12]; [25],25
same,Minimum Inhibitory Concentration (MIC),[12]; [26],100
same,Minimum Inhibitory Concentration (MIC),[13]; [25],≤ 0.2
same,Minimum Inhibitory Concentration (MIC),[13]; [26],25
same,Minimum Inhibitory Concentration (MIC),[14]; [25],≤ 0.2
same,Minimum Inhibitory Concentration (MIC),[14]; [26],1.6
same,Minimum Inhibitory Concentration (MIC),[14]; [27],3.1
same,Minimum Inhibitory Concentration (MIC),[15]; [25],≤ 0.2
same,Minimum Inhibitory Concentration (MIC),[15]; [26],50
same,Minimum Inhibitory Concentration (MIC),[15]; [27],50
same,Minimum Inhibitory Concentration (MIC),[16]; [25],1.6
same,Minimum Inhibitory Concentration (MIC),[16]; [26],3.1
same,Minimum Inhibitory Concentration (MIC),[17]; [25],≤ 0.2
same,Minimum Inhibitory Concentration (MIC),[17]; [26],50
CO/N=C(\C(=O)N[C@@H]1C(=O)N2C(C(=O)O)=C(CSc3nc(C(=O)O)c(N)n3C)CS[C@H]12)c1csc(N)n1 [Compound No. 2],Minimum Inhibitory Concentration (MIC),[1]; [25],0.2
same,LD50,[24],9000 to 10000 mg/kg
same,Minimum Inhibitory Concentration (MIC),[3],6.3
same,Minimum Inhibitory Concentration (MIC),[4]; [25],0.2
same,Minimum Inhibitory Concentration (MIC),[5]; [25],0.1
same,Minimum Inhibitory Concentration (MIC),[6]; [25],6.3
same,Minimum Inhibitory Concentration (MIC),[7]; [25],0.1
same,Minimum Inhibitory Concentration (MIC),[8]; [25],0.2
same,Minimum Inhibitory Concentration (MIC),[9]; [25],0.2
same,Minimum Inhibitory Concentration (MIC),[10]; [25],0.2
same,Minimum Inhibitory Concentration (MIC),[11]; [25],0.2
same,Cmax,[23],16000 ng/mL
same,Minimum Inhibitory Concentration (MIC),[12]; [25],25
same,Minimum Inhibitory Concentration (MIC),[13]; [25],0.2
same,Minimum Inhibitory Concentration (MIC),[14]; [25],0.4
same,Minimum Inhibitory Concentration (MIC),[15]; [25],0.8
same,Minimum Inhibitory Concentration (MIC),[16]; [25],3.1
same,Minimum Inhibitory Concentration (MIC),[17]; [25],1.6
same,Minimum Inhibitory Concentration (MIC),[18],0.1
